{"source": "paper PMC4701951", "about": "“Characterization of a New M13 Metallopeptidase from Deep-Sea Shewanella sp. E525-6 and Mechanistic Insight into Its Catalysis” (Frontiers in Microbiology, 2016)", "target": "T1, PepS (Shewanella sp. E525-6, UniProt A0A140CQI1)", "T1 construct": "mature N-terminus L17-T-A-C-N21 (16-residue signal peptide removed)", "T1 sequence (A0A140CQI1 17-694)": "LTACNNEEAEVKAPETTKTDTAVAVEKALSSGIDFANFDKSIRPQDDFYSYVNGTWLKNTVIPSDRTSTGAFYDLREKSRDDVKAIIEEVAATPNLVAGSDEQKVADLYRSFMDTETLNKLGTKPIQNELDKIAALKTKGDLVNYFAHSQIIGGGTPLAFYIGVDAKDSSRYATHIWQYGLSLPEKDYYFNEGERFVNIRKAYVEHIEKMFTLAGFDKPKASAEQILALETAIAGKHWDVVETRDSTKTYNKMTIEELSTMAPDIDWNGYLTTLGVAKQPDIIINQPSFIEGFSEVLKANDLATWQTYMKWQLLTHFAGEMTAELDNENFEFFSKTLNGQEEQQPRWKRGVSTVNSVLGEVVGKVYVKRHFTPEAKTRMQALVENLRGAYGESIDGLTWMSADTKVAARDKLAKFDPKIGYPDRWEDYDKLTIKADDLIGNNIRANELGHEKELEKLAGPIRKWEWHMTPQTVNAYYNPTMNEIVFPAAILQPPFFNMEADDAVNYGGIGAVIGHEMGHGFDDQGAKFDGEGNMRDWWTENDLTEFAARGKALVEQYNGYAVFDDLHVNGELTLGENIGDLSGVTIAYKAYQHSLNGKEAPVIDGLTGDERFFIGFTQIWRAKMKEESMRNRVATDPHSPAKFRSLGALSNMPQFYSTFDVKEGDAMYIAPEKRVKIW", "test": "residual peptidase activity, HPLC of product FSP", "format": "biochemical", "excerpt": "residual peptidase activity, HPLC of product FSP on PepS", "data": [{"smiles": "CC(C)C[C@H](NP(=O)(O)O[C@@H]1O[C@@H](C)[C@H](O)[C@@H](O)[C@H]1O)C(=O)N[C@@H](Cc1c[nH]c2ccccc12)C(=O)O", "note": "[Phosphoramidon]", "values": [{"measurement": "remaining activity at 10 µM", "value": "4.3 ± 0.4", "unit": "%"}]}]}
